US10294202B2, “Pyrrolidinones as herbicides” (FMC Corporation, priority 2013, dated 2019)

Legend:
[1] = test system: wheat (winter wheat); assay: Test C pre-/postemergence herbicide test; type: in vivo, Triticum aestivum; settings: Preemergence; for Plant response rating (scale of 0 to 100), Wheat: 250 g ai/ha
How it was run: (§1)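 Response scores range from 0, meaning no effect, to 100, meaning complete control, assigned visually by comparison with controls roughly two weeks (13 to 15 days) after spraying. Applications were made preemergence to seeded loam–sand soil and postemergence to 1- to 4-leaf plants.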

[2] = test system: galium; assay: Test C pre-/postemergence herbicide test; type: in vivo, Galium aparine; settings: Preemergence
How it was run: as §1

[3] = test system: pigweed; assay: Test C pre-/postemergence herbicide test; type: in vivo, Amaranthus retroflexus; settings: Preemergence; for Plant response rating (scale of 0 to 100), Pigweed: 250 g ai/ha
How it was run: as §1

[4] = test system: morningglory; assay: Test C pre-/postemergence herbicide test; type: in vivo, Ipomoea coccinea; settings: Preemergence; for Plant response rating (scale of 0 to 100), Morningglory: 250 g ai/ha
How it was run: as §1

[5] = test system: corn; assay: Test C pre-/postemergence herbicide test; type: in vivo, Zea mays; settings: Preemergence
How it was run: as §1

[6] = test system: oat, wild; assay: Test C pre-/postemergence herbicide test; type: in vivo, Avena fatua; settings: Preemergence
Source text: Seeds of plant species selected from blackgrass (Alopecurus myosuroides), ryegrass, Italian (Italian ryegrass, Lolium multiflorum), wheat (winter wheat, Triticum aestivum), galium (catchweed bedstraw, Galium aparine), corn (Zea mays), crabgrass, large (large crabgrass, Digitaria sanguinalis), foxtail, giant (giant foxtail, Setaria faberii), johnsongrass (Sorghum halepense), lambsquarters (Chenopodium album), morningglory (Ipomoea coccinea), nutsedge, yellow (yellow nutsedge, Cyperus esculentus), pigweed (Amaranthus retroflexus), ragweed (common ragweed, Ambrosia elatior), soybean (Glycine max), barnyardgrass (Echinochloa crus-galli), oilseed rape (Brassica napus), waterhemp (common waterhemp, Amaranthus rudis), kochia (Kochia scoparia), oat, wild (wild oat, Avena fatua), surinam grass (Brachiaria decumbens), foxtail, green (green foxtail, Setaria viridis), goosegrass (Eleusine indica), bromegrass, downy (downy bromegrass, Bromus tectorum), nightshade (eastern black nightshade, Solanum ptycanthum), cocklebur (common cocklebur, Xanthium strumarium), cupgrass, woolly (woolly cupgrass, Eriochloa villosa), bermudagrass (Cynodon dactylon), sunflower, (common oilseed sunflower, Helianthus annuus), Russian thistle (Salsola kali) and velvetleaf (Abutilon theophrasti) were planted into a blend of loam soil and sand and treated preemergence with test chemicals formulated in a non-phytotoxic solvent mixture which included a surfactant. At the same time, plants selected from these crop and weed species and also barley (winter barley, Hordeum vulgare), […]), chickweed (common chickweed, Stellaria media), deadnettle (henbit deadnettle, Lamium amplexicaule), and canarygrass (littleseed canarygrass, Phalaris minor) were planted in pots containing Redi-Earth® planting medium (Scotts Company, 14111 Scottslawn Road, Marysville, Ohio 43041) comprising spaghnum peat moss, vermiculite, wetting agent and starter nutrients and treated with postemergence applications of test chemicals formulated in the same manner. Plants ranged in height from 2 to 18 cm (1- to 4-leaf stage) for postemergence treatments. Treated plants and controls were maintained in a greenhouse for 13 to 15 days, after which time all species were compared to controls and visually evaluated. Plant response ratings, summarized in Table C, are based on a scale of 0 to 100 where 0 is no effect and 100 is complete control. A dash (-) response means no test result.

[7] = test system: ragweed; assay: Test C pre-/postemergence herbicide test; type: in vivo, Ambrosia elatior; settings: Preemergence; for Plant response rating (scale of 0 to 100), Ragweed: 250 g ai/ha
How it was run: as §1

[8] = test system: soybean; assay: Test C pre-/postemergence herbicide test; type: in vivo, Glycine max; settings: Preemergence; for Plant response rating (scale of 0 to 100), Soybean: 250 g ai/ha
How it was run: as §1

[9] = test system: ryegrass, Italian; assay: Test C pre-/postemergence herbicide test; type: in vivo, Lolium multiflorum; settings: Preemergence; for Plant response rating (scale of 0 to 100), Ryegrass, Italian: 250 g ai/ha
How it was run: as §1

[10] = test system: ducksalad; assay: Test B flooded paddy test; type: in vivo, Heteranthera limosa; settings: 500 g ai/ha, Flood; scale of 0 to 100 where 0 is no effect and 100 is complete control
How it was run: (§2)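 First, plants reach the 2-leaf stage; next, pots are flooded to 3 cm and compound is delivered into the water; finally, after 13 to 15 greenhouse days at constant depth, injury is graded visually from 0 to 100 against controls.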

[11] = test system: barnyardgrass; assay: Test B flooded paddy test; type: in vivo, Echinochloa crus-galli; settings: 500 g ai/ha, Flood; scale of 0 to 100 where 0 is no effect and 100 is complete control
How it was run: as §2

[12] = test system: sedge, umbrella; assay: Test B flooded paddy test; type: in vivo, Cyperus difformis; settings: 500 g ai/ha, Flood; scale of 0 to 100 where 0 is no effect and 100 is complete control
How it was run: as §2

[13] = test system: barnyardgrass; assay: Test C pre-/postemergence herbicide test; type: in vivo, Echinochloa crus-galli; settings: Preemergence; for Plant response rating, Barnyardgrass: 125 g ai/ha; for Plant response rating (scale of 0 to 100; 0 is no effect, 100 is complete control), Barnyardgrass: 250 g ai/ha
How it was run: as §1

[14] = test system: lambsquarters; assay: Test C pre-/postemergence herbicide test; type: in vivo, Chenopodium album; settings: Preemergence; for Plant response rating (scale of 0 to 100), Lambsquarters: 250 g ai/ha
How it was run: as §1

[15] = test system: waterhemp; assay: Test C pre-/postemergence herbicide test; type: in vivo, Amaranthus rudis; settings: Preemergence; for Plant response rating (scale of 0 to 100), Waterhemp: 250 g ai/ha
How it was run: as §1

[16] = 125 g ai/ha, scale 0 to 100 (0 no effect, 100 complete control)
[17] = 31 g ai/ha, scale 0 to 100 (0 no effect, 100 complete control)
[18] = 31 g ai/ha, scale 0 to 100, 0 is no effect and 100 is complete control
[19] = 62 g ai/ha, scale 0 to 100 (0 no effect, 100 complete control)
[20] = scale 0 to 100 (0 no effect, 100 complete control)

O=C1NCC(c2ccc(F)cc2)C1C(=O)Nc1ccccc1F (racemic) [Compound 16]
Plant response rating, Wheat ([1]; 62 g ai/ha, scale 0 to 100): 0
Plant response rating, Wheat [1, 16]: 0
Galium plant response rating [2, 17]: 0
Plant response rating, Galium ([2]; 62 g ai/ha, scale 0 to 100): 0
Plant response rating, Pigweed ([3]; 62 g ai/ha, scale 0 to 100): 0
Plant response rating, Pigweed [3, 16]: 0
Plant response rating, Morningglory ([4]; 62 g ai/ha, scale 0 to 100): 0
Plant response rating, Morningglory [4, 16]: 0
Corn plant response rating [5, 17]: 0
Plant response rating, Corn ([5]; 62 g ai/ha, scale 0 to 100): 0
Plant response rating, Corn [5, 16]: 5
Plant response rating, Corn ([5]; 250 g ai/ha, scale 0 to 100 (0 no effect, 100 complete control)): 10
Plant response rating, Oat, Wild ([6]; 62 g ai/ha, scale 0 to 100): 5
Plant response rating, Oat, Wild [6, 16]: 15
Plant response rating, Ragweed ([7]; 62 g ai/ha, scale 0 to 100): 0
Plant response rating, Ragweed [7, 16]: 0
Plant response rating, Soybean ([8]; 62 g ai/ha, scale 0 to 100): 0
Plant response rating, Soybean [8, 16]: 0
Plant response rating, Ryegrass, Italian ([9]; 62 g ai/ha, scale 0 to 100): 0

O=C(Nc1ccccc1F)C1C(=S)NCC1c1cccc(C(F)(F)F)c1 (stereo not drawn) [Compound 274]
Wheat plant response rating [1, 18]: 0
Wheat plant response rating [1, 19]: 0
Plant response rating (scale of 0 to 100), Wheat [1]: 40
Galium plant response rating [2, 18]: 0
Galium plant response rating [2, 19]: 0
Plant response rating, Galium [2, 16]: 80
Plant response rating, Ducksalad [10]: 35
Plant response rating, Barnyardgrass [11]: 0
Plant response rating, Sedge, Umbrella [12]: 0
Barnyardgrass plant response rating [13, 18]: 55
Barnyardgrass plant response rating [13, 19]: 65
Plant response rating, Barnyardgrass [13, 20]: 85
Plant response rating (scale of 0 to 100; 0 is no effect, 100 is complete control), Barnyardgrass [13]: 90
Pigweed plant response rating [3, 18]: 0
Pigweed plant response rating [3, 19]: 0
Plant response rating, Pigweed [3, 16]: 0
Plant response rating (scale of 0 to 100), Pigweed [3]: 0
Morningglory plant response rating [4, 18]: 0
Morningglory plant response rating [4, 19]: 0
Plant response rating, Morningglory [4, 16]: 0
Plant response rating (scale of 0 to 100), Morningglory [4]: 0
Corn plant response rating [5, 18]: 0
Corn plant response rating [5, 19]: 5
Plant response rating, Corn [5, 16]: 10
Plant response rating (scale of 0 to 100), Corn ([5]; 250 g ai/ha): 45
Lambsquarters plant response rating [14, 19]: 0
Plant response rating (scale of 0 to 100), Lambsquarters [14]: 0
Ragweed plant response rating [7, 19]: 0
Plant response rating, Ragweed [7, 16]: 0
Plant response rating (scale of 0 to 100), Ragweed [7]: 0
Soybean plant response rating [8, 18]: 0
Soybean plant response rating [8, 19]: 0
Plant response rating, Soybean [8, 16]: 5
Plant response rating (scale of 0 to 100), Soybean [8]: 0
Waterhemp plant response rating [15, 18]: 0
Waterhemp plant response rating [15, 19]: 0
Plant response rating (scale of 0 to 100), Waterhemp [15]: 0
Ryegrass, Italian plant response rating [9, 18]: 0
Ryegrass, Italian plant response rating [9, 19]: 0
Plant response rating, Ryegrass, Italian [9, 16]: 5
Plant response rating (scale of 0 to 100), Ryegrass, Italian [9]: 30

O=C1NCC(c2cccc(Br)c2)C1C(=O)Nc1ccccc1F (stereo not drawn) [Compound 307]
Wheat plant response rating [1, 19]: 0
Plant response rating, Wheat ([1]; 125 g ai/ha, scale 0 to 100): 5
Plant response rating (scale of 0 to 100), Wheat [1]: 15
Galium plant response rating [2, 18]: 0
Galium plant response rating [2, 19]: 0
Plant response rating, Galium ([2]; 125 g ai/ha, scale 0 to 100): 100
Plant response rating (scale of 0 to 100), Galium ([2]; 250 g ai/ha): 85
Plant response rating, Ducksalad [10]: 98
Plant response rating, Barnyardgrass [11]: 65
Plant response rating, Sedge, Umbrella [12]: 0
Barnyardgrass plant response rating [13, 18]: 40
Barnyardgrass plant response rating [13, 19]: 70
Plant response rating, Barnyardgrass [13, 20]: 85
Plant response rating (scale of 0 to 100; 0 is no effect, 100 is complete control), Barnyardgrass [13]: 95
Pigweed plant response rating [3, 18]: 0
Pigweed plant response rating [3, 19]: 0
Plant response rating, Pigweed ([3]; 125 g ai/ha, scale 0 to 100): 40
Plant response rating (scale of 0 to 100), Pigweed [3]: 35
Morningglory plant response rating [4, 18]: 0
Morningglory plant response rating [4, 19]: 0
Plant response rating, Morningglory ([4]; 125 g ai/ha, scale 0 to 100): 0
Plant response rating (scale of 0 to 100), Morningglory [4]: 0
Corn plant response rating [5, 18]: 0
Corn plant response rating [5, 19]: 0
Plant response rating, Corn ([5]; 125 g ai/ha, scale 0 to 100): 40
Plant response rating (scale of 0 to 100), Corn ([5]; 250 g ai/ha): 40
Lambsquarters plant response rating [14, 18]: 0
Lambsquarters plant response rating [14, 19]: 0
Plant response rating, Lambsquarters ([14]; 125 g ai/ha, scale 0 to 100): 10
Plant response rating (scale of 0 to 100), Lambsquarters [14]: 85
Ragweed plant response rating [7, 19]: 0
Plant response rating, Ragweed ([7]; 125 g ai/ha, scale 0 to 100): 0
Plant response rating (scale of 0 to 100), Ragweed [7]: 35
Soybean plant response rating [8, 19]: 0
Plant response rating, Soybean ([8]; 125 g ai/ha, scale 0 to 100): 0
Plant response rating (scale of 0 to 100), Soybean [8]: 0
Waterhemp plant response rating [15, 19]: 0
Plant response rating, Waterhemp ([15]; 125 g ai/ha, scale 0 to 100): 0
Plant response rating (scale of 0 to 100), Waterhemp [15]: 0
Ryegrass, Italian plant response rating [9, 19]: 0
Plant response rating, Ryegrass, Italian ([9]; 125 g ai/ha, scale 0 to 100): 5
Plant response rating (scale of 0 to 100), Ryegrass, Italian [9]: 10
